Test: Storage stability of sucralose in the acidic composition
Assay type: physicochemical
Conditions: highly acidic in water

stability in the presence of hemostatic or dental etching agents: stable
SMILES: OC[C@H]1O[C@H](O[C@]2(CCl)O[C@H](CCl)[C@@H](O)[C@@H]2O)[C@H](O)[C@@H](O)[C@H]1Cl [sucralose, 1,6-dichloro-1,6-dideoxy-β-D-fructo-furanosyl-4-chloro-4-deoxy-α-D-galactopyranoside]

From US6689343B1, “Hemostatic and acid etch compositions containing sucralose” (Ultradent Products, Inc., priority 2002, dated 2004)
